Measurements as given in ChEMBL document CHEMBL5465560, “Selectivity Literature for EUbOPEN Chemogenomic Library” (2024).
Values belong to the molecule of their own block, whether it stands above or below them.

Columns and labels:
[1] = target: DNA (cytosine-5)-methyltransferase 3A (Homo sapiens) (UniProt Q9Y6K1); conditions: at 10 µM
[2] = target: Serine/threonine-protein kinase 16 (Homo sapiens, UniProt O75716); assay: Selectivity interaction (Enzymatic assay) EUB0001550a STK16
[3] = target: Delta-type opioid receptor (Homo sapiens, UniProt P41143); assay: Selectivity interaction (Panel of non-epigenetic targets (kinases, GPCRs, ion channels, and transporters, Eurofins) ) EUB0000271b OPRD1; conditions: at 1 µM
[4] = target: T1, Tyrosine-protein kinase TXK (Homo sapiens) (UniProt P42681); assay: Selectivity interaction (KinomeScan (DiscoverX)) EUB0000229b TXK; conditions: at 10 µM
T1 sequence (whole entry): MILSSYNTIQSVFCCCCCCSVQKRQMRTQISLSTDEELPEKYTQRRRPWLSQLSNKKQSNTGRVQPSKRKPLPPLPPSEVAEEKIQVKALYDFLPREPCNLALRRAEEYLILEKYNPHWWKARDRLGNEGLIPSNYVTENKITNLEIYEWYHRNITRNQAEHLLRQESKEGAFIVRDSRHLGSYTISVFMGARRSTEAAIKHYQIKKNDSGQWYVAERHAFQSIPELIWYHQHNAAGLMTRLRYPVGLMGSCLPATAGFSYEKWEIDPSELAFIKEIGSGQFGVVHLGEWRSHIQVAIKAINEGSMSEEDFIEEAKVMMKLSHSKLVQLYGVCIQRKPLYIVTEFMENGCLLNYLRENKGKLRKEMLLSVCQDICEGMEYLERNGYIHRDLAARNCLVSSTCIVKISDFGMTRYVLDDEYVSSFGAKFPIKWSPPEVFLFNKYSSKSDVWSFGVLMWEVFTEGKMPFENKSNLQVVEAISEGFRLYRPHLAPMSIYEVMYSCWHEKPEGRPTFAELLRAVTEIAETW

[5] = target: Serine/threonine-protein kinase WNK1 (Homo sapiens) (UniProt Q9H4A3); assay: Selectivity interaction (KinomeScan (DiscoverX)) EUB0000229b WNK1; conditions: at 10 µM
[6] = target: T2, Serine/threonine-protein kinase D2 (Homo sapiens) (UniProt Q9BZL6); assay: Selectivity interaction (KinomeScan (DiscoverX)) EUB0001079a PRKD2; conditions: at 1 µM
T2 sequence (whole entry): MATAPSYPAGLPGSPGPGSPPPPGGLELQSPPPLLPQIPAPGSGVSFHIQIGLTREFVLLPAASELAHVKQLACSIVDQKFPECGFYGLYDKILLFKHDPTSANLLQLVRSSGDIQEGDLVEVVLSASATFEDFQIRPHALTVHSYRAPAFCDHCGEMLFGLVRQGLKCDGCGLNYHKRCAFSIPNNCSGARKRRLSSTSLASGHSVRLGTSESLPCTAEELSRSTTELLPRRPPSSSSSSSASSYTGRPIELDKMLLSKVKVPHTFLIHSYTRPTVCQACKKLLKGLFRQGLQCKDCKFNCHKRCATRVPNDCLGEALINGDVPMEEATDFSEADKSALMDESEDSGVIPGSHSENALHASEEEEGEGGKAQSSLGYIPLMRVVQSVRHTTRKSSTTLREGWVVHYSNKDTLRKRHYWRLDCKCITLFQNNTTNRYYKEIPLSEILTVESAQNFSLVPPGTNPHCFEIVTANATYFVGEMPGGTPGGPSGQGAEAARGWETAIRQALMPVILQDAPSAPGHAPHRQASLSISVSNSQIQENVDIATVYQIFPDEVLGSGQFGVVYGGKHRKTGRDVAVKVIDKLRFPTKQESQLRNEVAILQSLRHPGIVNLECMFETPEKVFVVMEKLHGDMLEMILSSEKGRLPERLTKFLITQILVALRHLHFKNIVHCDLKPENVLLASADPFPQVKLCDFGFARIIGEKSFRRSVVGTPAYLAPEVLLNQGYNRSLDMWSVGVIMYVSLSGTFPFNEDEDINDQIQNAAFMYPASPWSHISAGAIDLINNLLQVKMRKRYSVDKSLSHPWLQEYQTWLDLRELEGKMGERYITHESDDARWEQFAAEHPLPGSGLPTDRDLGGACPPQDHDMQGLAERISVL

[7] = target: Serine/threonine-protein kinase OSR1 (Homo sapiens) (UniProt O95747); assay: Selectivity interaction (KinomeScan (DiscoverX)) EUB0001079a OXSR1; conditions: at 1 µM
[8] = target: Homeodomain-interacting protein kinase 1 (Homo sapiens, UniProt Q86Z02); assay: Selectivity interaction (Upstate Kinase Profiler service (Millipore)) EUB0000056c HIPK1; conditions: at 1 µM
[9] = target: Mitogen-activated protein kinase kinase kinase kinase 1 (Homo sapiens) (UniProt Q92918); assay: Selectivity interaction (ActivX KiNativ screen (ex vivo kinase selectivity in human PBMCs)) EUB0001619a MAP4K1; format: cell-based; conditions: PBMC, at 1 µM

Chain of Serine/threonine-protein kinase OSR1 (Homo sapiens) (O95747 2-527 limits assumed): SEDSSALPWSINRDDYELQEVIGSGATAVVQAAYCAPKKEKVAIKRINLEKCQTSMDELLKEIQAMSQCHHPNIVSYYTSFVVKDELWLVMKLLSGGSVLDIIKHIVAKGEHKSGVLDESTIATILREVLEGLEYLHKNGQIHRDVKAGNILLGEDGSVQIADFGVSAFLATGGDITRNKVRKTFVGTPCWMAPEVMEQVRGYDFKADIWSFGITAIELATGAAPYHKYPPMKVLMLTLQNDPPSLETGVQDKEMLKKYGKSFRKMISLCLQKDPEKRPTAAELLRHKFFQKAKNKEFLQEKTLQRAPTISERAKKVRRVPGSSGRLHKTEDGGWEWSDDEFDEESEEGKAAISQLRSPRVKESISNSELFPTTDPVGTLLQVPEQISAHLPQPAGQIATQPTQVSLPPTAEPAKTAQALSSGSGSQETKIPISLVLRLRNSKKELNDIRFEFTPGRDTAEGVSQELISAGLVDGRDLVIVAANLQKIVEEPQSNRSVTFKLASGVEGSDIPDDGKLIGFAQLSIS
Chain of DNA (cytosine-5)-methyltransferase 3A (Homo sapiens) (Q9Y6K1 whole entry, looked up): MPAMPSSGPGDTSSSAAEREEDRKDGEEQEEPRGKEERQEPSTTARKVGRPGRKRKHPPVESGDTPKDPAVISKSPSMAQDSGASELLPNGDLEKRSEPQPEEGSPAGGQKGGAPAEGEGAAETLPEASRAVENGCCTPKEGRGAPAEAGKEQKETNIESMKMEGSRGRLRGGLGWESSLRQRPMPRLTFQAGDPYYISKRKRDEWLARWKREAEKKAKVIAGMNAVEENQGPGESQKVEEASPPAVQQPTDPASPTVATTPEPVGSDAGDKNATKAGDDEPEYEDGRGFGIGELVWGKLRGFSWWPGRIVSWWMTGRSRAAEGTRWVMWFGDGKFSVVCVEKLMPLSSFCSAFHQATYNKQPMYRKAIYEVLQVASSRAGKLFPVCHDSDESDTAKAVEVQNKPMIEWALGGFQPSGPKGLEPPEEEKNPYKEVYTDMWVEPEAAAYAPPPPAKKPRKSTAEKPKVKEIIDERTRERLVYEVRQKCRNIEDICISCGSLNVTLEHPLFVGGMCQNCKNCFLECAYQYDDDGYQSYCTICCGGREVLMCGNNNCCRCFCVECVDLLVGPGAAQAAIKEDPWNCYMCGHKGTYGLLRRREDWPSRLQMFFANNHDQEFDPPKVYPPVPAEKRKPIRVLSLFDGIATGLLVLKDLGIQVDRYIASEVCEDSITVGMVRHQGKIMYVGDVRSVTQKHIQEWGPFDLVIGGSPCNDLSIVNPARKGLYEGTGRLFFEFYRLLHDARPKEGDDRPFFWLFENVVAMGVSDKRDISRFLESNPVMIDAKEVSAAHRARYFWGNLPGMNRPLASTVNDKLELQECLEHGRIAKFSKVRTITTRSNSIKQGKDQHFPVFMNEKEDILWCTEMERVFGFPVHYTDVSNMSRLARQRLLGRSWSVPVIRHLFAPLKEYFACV
Chain of Serine/threonine-protein kinase WNK1 (Homo sapiens) (Q9H4A3 whole entry, looked up): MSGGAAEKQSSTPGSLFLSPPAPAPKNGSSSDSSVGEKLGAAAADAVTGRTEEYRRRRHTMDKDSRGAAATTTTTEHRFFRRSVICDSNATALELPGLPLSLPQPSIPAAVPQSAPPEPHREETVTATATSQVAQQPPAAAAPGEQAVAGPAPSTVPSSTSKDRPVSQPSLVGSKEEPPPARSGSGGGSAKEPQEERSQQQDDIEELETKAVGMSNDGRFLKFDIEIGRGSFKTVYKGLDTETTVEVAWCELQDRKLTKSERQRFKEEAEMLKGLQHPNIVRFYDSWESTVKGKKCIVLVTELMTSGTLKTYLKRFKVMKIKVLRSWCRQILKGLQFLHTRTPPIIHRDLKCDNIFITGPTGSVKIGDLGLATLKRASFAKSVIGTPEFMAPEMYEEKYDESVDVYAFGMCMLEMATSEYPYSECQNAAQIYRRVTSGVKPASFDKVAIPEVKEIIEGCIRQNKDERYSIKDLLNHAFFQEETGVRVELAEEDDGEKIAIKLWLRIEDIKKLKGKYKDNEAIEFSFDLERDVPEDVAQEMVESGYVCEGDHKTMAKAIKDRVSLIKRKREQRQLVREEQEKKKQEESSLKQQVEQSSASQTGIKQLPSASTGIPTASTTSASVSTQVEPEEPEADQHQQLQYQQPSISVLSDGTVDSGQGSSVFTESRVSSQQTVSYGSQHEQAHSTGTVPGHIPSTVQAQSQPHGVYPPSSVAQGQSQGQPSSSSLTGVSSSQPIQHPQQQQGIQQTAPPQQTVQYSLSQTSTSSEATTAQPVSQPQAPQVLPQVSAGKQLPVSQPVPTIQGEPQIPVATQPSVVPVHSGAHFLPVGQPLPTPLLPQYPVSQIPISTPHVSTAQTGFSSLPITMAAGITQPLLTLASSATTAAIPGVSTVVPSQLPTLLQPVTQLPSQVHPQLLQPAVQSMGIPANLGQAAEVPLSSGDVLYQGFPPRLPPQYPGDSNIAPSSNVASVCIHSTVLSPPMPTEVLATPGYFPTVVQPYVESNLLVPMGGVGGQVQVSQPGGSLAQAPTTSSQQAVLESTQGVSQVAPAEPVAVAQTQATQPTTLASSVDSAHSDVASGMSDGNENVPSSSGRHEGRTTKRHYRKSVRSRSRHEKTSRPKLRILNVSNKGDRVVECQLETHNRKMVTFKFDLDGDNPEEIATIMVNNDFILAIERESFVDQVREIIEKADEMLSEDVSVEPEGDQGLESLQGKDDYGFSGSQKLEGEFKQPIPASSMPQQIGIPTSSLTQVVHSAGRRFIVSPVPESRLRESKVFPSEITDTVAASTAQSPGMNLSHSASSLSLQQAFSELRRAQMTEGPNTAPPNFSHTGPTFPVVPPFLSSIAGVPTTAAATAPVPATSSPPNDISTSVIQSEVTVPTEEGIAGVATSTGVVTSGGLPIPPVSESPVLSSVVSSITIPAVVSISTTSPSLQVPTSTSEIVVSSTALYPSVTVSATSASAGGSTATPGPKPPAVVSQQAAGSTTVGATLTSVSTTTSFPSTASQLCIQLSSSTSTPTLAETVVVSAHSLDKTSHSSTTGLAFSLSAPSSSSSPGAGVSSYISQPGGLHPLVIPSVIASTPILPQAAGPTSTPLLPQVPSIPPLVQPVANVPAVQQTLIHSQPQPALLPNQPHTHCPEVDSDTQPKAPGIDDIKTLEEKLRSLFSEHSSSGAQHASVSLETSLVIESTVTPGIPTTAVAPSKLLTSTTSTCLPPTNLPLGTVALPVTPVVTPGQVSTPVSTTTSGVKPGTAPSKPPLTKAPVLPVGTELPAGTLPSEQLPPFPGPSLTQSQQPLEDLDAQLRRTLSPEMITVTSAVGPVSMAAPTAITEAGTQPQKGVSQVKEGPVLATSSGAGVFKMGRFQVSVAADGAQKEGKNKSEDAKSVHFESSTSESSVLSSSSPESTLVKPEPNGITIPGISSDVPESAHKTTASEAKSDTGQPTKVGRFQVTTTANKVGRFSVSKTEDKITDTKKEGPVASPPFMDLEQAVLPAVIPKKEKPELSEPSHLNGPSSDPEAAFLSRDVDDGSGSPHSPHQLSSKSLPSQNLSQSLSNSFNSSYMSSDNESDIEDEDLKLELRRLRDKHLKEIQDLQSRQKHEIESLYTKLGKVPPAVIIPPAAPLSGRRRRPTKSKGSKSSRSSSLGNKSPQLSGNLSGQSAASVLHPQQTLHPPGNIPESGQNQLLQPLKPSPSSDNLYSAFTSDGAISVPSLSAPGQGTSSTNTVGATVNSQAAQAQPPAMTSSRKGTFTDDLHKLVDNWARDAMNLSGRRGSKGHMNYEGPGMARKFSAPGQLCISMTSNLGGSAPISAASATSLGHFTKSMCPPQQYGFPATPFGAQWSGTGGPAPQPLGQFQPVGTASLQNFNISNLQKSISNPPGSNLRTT
Chain of Delta-type opioid receptor (P41143 whole entry): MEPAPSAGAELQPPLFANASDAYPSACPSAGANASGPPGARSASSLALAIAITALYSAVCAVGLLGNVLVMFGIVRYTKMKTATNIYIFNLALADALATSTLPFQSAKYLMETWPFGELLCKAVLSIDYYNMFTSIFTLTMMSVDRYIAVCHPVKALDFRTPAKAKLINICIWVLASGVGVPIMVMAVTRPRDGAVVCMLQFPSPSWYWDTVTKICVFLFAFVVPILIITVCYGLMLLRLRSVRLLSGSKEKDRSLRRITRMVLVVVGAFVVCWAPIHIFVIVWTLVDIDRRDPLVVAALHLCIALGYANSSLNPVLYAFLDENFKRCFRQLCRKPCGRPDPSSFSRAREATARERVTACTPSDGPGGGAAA
Chain of Serine/threonine-protein kinase 16 (O75716 whole entry): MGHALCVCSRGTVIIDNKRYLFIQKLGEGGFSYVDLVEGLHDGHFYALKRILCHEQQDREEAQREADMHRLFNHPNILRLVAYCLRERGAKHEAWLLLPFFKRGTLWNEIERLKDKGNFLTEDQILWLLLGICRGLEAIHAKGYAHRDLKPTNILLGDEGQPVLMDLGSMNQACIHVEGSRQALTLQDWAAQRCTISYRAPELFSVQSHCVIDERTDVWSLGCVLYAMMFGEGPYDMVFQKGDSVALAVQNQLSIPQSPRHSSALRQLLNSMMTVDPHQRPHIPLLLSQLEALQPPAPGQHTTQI

% activity [1]: > 90%
Compound: CNCCN1CCC(c2cc(CN(C)C(=O)c3cccc(Oc4ccccc4)c3)ccn2)CC1

IC50 [2]: 0.56 µM
Compound: CN(C)CC#Cc1ccc2[nH]c3c(c2c1)-c1nc(N)ncc1CCC3

Compound: Cc1cc(C)cc([C@@H]2c3cc(C)ccc3NC(=O)CN2C(=O)c2ccc(Br)s2)c1
% of inhibition [3]: -20%

Compound: COc1cc(N(C)c2ccnc3ccc(C(F)(F)F)cc23)cc(OC)c1OC
% binding [4]: 96%
% binding [5]: 72%

Compound: Nc1cnc(N2CCc3cc(S(=O)(=O)Nc4c(F)cc(Cl)cc4F)cc(N4CCCC4=O)c32)nc1 [TP-020n]
% of control [6]: 100%
% of control [7]: 75%

% of inhibition [8]: 7%
Compound: Cc1ccc(-c2ccc3c(ccc4sc5c(c43)NC[C@@H](C)NC5=O)n2)cn1

Compound: N#Cc1cccc(-c2c[nH]c3ncnc(N4CCOCC4)c23)c1
% of inhibition [9]: 26%
